ChEMBL document CHEMBL1201862, “PubChem BioAssay data set” (2004)
Active and inactive are the calls of the source.

Assays:
[1] = molecular target: Cytochrome P450 2C9 (Homo sapiens, UniProt P11712)
[2] = molecular target: Cytochrome P450 3A4 (Homo sapiens, UniProt P08684);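 also: CYP3A4 tested as one member of a cytochrome P450 panel screen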
[3] = molecular target: T1, Cytochrome P450 1A2 (Homo sapiens, UniProt P05177);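 also: PubChem cytochrome P450 panel assay, CYP1A2 panel member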
T1 sequence (P05177 whole entry): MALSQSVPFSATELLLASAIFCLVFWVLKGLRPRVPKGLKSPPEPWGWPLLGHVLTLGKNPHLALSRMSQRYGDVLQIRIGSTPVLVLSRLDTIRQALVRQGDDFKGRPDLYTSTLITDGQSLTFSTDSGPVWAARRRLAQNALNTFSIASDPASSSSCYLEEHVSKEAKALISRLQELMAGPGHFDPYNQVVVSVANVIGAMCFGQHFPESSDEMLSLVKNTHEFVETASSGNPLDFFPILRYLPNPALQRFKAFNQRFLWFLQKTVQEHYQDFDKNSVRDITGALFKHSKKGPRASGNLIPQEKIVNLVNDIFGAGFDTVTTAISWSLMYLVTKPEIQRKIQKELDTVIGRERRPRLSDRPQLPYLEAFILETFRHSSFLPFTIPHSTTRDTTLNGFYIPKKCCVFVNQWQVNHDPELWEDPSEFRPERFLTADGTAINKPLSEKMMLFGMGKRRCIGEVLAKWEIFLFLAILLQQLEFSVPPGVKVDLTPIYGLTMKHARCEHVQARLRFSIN

[4] = molecular target: Cytochrome P450 2C19 (Homo sapiens, UniProt P33261); experiment: Cytochrome panel assay with activity outcomes. Panel member name: p450-cyp2c19 Compounds with AC50 equal or less than 10 uM are considered active; format: functional; conditions: read-out: AC50
Cytochrome P450 2C19, sequence (P33261 whole entry): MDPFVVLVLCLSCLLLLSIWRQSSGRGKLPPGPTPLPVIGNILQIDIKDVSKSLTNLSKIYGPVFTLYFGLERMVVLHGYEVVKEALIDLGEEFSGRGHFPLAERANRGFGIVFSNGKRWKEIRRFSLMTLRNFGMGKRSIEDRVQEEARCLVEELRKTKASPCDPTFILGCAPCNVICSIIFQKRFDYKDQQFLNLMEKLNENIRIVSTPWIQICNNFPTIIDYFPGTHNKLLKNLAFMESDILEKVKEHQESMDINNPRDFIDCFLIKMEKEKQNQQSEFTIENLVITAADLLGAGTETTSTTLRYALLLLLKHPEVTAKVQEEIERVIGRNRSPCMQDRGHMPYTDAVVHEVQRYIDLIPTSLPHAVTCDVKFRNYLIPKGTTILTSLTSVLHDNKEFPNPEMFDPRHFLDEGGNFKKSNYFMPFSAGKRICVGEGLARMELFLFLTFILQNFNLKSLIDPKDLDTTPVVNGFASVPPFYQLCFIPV

[5] = molecular target: T2, Corticotropin-releasing factor receptor 2/Corticotropin-releasing factor-binding protein (Homo sapiens, UniProt P24387+Q13324); experiment: activators of CRF receptor 2 with binding protein – uHTS hits, confirmation (AID 602473); format: functional; conditions: read-out: EC50_Mean
T2 sequence (Q13324 whole entry): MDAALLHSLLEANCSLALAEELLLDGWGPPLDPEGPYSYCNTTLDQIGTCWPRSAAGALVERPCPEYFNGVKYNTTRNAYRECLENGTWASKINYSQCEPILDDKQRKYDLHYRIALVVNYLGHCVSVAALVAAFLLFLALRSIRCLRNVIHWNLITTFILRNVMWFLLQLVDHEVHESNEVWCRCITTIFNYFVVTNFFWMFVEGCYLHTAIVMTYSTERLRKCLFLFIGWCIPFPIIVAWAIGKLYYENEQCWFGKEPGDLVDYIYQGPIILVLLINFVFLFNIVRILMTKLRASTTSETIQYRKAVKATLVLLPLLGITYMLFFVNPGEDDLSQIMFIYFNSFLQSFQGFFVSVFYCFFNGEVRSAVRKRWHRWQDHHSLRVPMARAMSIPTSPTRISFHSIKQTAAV
T2 sequence (P24387 whole entry): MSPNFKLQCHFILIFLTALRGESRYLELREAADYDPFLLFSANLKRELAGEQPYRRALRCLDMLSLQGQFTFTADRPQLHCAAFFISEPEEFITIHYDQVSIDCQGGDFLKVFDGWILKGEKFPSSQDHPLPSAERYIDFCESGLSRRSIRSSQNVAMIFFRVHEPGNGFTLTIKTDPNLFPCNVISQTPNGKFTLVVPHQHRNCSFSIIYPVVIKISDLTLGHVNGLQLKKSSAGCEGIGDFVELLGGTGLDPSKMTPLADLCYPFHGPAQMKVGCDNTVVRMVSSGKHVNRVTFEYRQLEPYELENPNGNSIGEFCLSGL

[6] = cells; format: functional, cell-based
[7] = cells; format: functional, cell-based; remark: listed apart in the source
[8] = molecular target: Luciferin 4-monooxygenase (Photinus pyralis, UniProt P08659); experiment: inhibition of purified Photinus pyralis luciferase – biochemical, luminescence, dose response (AID 1891)
Luciferin 4-monooxygenase, sequence (P08659 whole entry): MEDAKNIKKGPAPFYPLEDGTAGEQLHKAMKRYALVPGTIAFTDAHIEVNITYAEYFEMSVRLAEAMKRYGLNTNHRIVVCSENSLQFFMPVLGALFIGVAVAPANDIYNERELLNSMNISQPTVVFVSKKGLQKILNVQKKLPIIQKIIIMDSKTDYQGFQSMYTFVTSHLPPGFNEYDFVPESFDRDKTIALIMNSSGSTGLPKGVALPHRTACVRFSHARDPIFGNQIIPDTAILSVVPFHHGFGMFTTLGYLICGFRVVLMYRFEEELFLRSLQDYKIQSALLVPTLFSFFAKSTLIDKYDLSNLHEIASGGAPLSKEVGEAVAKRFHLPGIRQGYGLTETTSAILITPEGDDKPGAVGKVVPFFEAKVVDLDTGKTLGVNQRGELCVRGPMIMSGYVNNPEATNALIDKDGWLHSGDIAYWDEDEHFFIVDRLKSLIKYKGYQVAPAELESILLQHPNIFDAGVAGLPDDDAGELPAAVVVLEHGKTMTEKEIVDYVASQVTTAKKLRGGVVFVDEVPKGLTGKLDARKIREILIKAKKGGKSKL

[9] = Luminescence Cell-Based Dose Confirmation HTS to Identify Inhibitors of Platelet Dense Granule Release. [Related pubchem assays: 1663 (Primary HTS), 1678 (Summary of Project)]; format: functional
[10] = system: H4; experiment: Luminescence Cell-Based Dose Response HTS to Identify Activators of 5'UTR Stem-Loop Driven Prion Protein mRNA Translation in H4 Neuroglioblastoma Cells. [Related pubchem assays: 1829 (Project Summary), 1814 (Primary HTS)]; format: functional; conditions: Homo sapiens
[11] = Luminescence Cell-Based Dose Confirmation HTS to Identify Activators of 5'UTR Stem-Loop Driven Alpha-Synuclein mRNA Translation in H4 Neuroglioblastoma Cells. [Related pubchem assays: 1829 (Project Summary), 1814 (Primary HTS)]; format: functional
[12] = Trypanosoma cruzi growth suppression in host cells – NIH3T3 host cells, beta-gal luminescence, confirmation (AID 2044); format: functional, cell-based;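 also: intracellular parasites grown in NIH/3T3 mouse fibroblasts as host cells; luminescent beta-galactosidase reporter signal from transgenic T. cruzi replicating inside host cells; inhibitors lower the luminescence signal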
[13] = NIH3T3 cell viability loss – ATP luminescence, mouse fibroblasts, counter-screen, dose response (AID 2010); format: functional, cell-based; conditions: NIH3T3;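 also: cells exposed to compound for about 90 hours before reading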
[14] = Luminescence Cell-Based Dose Response HTS to Identify Activators of Luciferase Translation or Activity in H4 […] Cells. [Related pubchem assays: 1829 (Project Summary), 1814 (Primary HTS)]; format: functional
[15] = molecular target: Cytochrome P450 2D6 (Homo sapiens, UniProt P10635);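 also: CYP2D6 member of a cytochrome P450 panel assay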
Cytochrome P450 2D6, sequence (P10635 whole entry): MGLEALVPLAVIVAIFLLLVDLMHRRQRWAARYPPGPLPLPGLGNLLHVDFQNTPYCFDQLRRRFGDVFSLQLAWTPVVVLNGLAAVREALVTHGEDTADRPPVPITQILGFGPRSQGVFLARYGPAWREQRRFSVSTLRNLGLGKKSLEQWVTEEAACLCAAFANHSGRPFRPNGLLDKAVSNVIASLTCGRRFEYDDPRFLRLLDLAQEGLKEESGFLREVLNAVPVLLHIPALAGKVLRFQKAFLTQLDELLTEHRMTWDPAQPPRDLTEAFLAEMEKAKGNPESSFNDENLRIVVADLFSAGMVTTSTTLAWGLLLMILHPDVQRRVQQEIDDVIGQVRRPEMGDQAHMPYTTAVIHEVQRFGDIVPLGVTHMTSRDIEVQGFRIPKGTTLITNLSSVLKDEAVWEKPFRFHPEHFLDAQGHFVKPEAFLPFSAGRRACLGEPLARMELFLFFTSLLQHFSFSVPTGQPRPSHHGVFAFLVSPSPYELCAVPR

[16] = molecular target: T3, Rac GTPase-activating protein 1 (Homo sapiens, UniProt Q9H0H5); experiment: blockers of MgcRacGAP-driven Rac1 GTP hydrolysis – biochemical, ADP Hunter fluorescence, primary and confirmatory, confirmation (AID 624330); format: functional
T3 sequence (Q9H0H5 whole entry): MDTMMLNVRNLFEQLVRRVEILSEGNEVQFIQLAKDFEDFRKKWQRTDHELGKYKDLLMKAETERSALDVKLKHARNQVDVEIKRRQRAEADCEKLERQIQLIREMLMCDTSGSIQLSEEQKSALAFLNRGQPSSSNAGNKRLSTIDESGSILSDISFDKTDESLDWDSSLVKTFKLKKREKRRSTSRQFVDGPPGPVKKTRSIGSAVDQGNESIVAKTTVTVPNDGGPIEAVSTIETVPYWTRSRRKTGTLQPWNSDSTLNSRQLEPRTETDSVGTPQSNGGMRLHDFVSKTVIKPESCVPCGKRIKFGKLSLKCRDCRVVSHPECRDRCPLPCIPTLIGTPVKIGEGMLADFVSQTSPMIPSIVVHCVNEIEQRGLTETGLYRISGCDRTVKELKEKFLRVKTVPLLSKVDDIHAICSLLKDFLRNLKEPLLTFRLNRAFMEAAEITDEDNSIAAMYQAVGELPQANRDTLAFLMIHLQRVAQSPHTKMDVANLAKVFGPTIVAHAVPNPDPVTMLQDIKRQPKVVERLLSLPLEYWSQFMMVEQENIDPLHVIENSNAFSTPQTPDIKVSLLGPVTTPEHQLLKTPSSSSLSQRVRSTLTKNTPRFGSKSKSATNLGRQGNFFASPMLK

Cytochrome P450 3A4, sequence (P08684 whole entry): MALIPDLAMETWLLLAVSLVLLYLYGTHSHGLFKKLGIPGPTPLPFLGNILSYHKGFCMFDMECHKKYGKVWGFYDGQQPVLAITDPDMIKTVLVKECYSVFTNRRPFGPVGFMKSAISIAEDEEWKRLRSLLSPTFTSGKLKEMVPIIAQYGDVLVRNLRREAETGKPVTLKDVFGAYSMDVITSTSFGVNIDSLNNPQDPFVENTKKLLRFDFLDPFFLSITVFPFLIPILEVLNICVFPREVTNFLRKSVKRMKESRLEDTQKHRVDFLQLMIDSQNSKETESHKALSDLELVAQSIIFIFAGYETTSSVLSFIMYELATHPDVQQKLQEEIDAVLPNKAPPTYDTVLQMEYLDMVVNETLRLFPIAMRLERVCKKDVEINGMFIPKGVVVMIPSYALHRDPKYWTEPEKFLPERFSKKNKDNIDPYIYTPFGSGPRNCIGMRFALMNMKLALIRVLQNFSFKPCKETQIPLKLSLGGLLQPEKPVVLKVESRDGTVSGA
Cytochrome P450 2C9, sequence (P11712 whole entry): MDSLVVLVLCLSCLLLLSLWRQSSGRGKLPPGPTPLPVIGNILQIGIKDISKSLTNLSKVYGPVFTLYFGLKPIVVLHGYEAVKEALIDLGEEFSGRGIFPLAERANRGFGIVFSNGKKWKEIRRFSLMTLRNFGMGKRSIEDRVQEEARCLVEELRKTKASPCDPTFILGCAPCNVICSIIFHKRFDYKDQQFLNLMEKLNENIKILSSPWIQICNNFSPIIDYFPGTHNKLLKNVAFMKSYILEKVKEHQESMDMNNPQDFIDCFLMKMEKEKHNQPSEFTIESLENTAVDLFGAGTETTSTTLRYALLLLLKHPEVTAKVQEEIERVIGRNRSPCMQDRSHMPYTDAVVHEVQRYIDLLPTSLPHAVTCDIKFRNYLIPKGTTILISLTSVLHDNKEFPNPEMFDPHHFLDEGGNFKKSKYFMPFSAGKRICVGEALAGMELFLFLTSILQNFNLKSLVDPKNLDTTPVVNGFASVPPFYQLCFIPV

SMILES: Cc1nc2c(ccc3nc(NC(=O)c4ccc(S(=O)(=O)N(C)C)cc4)sc32)s1
- AC50 [1]: 0.794 µM (inconclusive)
- AC50 [2]: 3.55 µM (inconclusive)
- AC50 [3]: 3.16 µM (inconclusive)
- AC50 [4]: 7.94 µM (inconclusive)

SMILES: CC(=O)c1cc(NC(=O)c2ccc(C)cc2)c(=O)oc1/C=C/N(C)C
- EC50 [5]: 6.73 µM (active)

SMILES: Cc1ccc2nc3c(O)n(CC(=O)NCCCN(C)Cc4ccccc4)ncc-3c2c1
- EC50 [6]: > 350 µM (not active)
- EC50 [7]: > 350 µM (not active)

SMILES: C=CCN1C(=O)/C(=C2/Sc3ccccc3N2C)S/C1=N\c1c(C)n[nH]c1C
- EC50 [8]: > 112 µM (not active)
- EC50 [9]: 17.5 µM (active)

SMILES: Cn1c(CCNC(=O)c2ccco2)nc2cc(NC(=O)C3CCCCC3)ccc21
- EC50 [6]: > 350 µM (not active)
- EC50 [7]: 97.8 µM (active)

SMILES: N#C/C(=C/c1ccc(N2CCCCC2)o1)c1cccc(F)c1
- EC50 [10]: 16.5 µM (active)
- EC50 [11]: 0.141 µM (active)
- EC50 [12]: 3.55 µM (active)
- EC50 [13]: > 60 µM (not active)
- EC50 [14]: 0.355 µM (active)

SMILES: COn1c(SC(C)C)nc2ccccc2c1=O
- AC50 [1]: 17.8 µM (inconclusive)

SMILES: CC(=O)Nc1ccc(CN2CCCC(CO)(Cc3cccc(Cl)c3)C2)cc1 (stereo not given)
- EC50 [5]: > 53 µM (inactive)

SMILES: C=CCOc1ccc(/C=C2\SC(N)=NC2=O)cc1OC
- EC50 [6]: > 350 µM (not active)
- EC50 [7]: > 350 µM (not active)

SMILES: Cc1ccc(N/C([S-])=C(/C(=O)c2ccc(C)c([N+](=O)[O-])c2)[n+]2ccccc2)cc1C
- AC50 [15]: 25.1 µM (inconclusive)
- EC50 [10]: 46.6 µM (active)
- EC50 [11]: 2.37 µM (active)
- AC50 [2]: 11.2 µM (inconclusive)
- EC50 [14]: 16.1 µM (active)

SMILES: N#CCCn1c(=O)c(-c2cc(F)cc(F)c2)nc2cnc(Oc3cccc(Cl)c3)nc21
- AC50 [1]: 7.94 µM (inconclusive)
- AC50 [2]: 10 µM (inconclusive)

SMILES: O=C(c1cc(C2CC2)nn1-c1ccccc1)N1CCN(c2ccc(O)cc2)CC1
- IC50 [16]: 37.9 µM (active)

SMILES: CC1(C)C[C@H](O)[C@@]23C[C@@H](OC2=O)[C@]2(C)C(=CCC4[C@@]5(C)CC[C@H](O)C(C)(C)C5CC[C@]42C)[C@@H]3C1 (stereo not given in full)
- EC50 [5]: 5.32 µM (active)

SMILES: COc1ccc(S(=O)(=O)N(Cc2cccnc2)Cc2cc3ccccc3nc2O)cc1
- EC50 [8]: > 112 µM (not active)
- EC50 [9]: > 112 µM (not active)

SMILES: c1cncc(-c2nnc3n2C2(CCCCC2)Cc2ccccc2-3)c1
- AC50 [1]: 31.6 µM (inconclusive)
- AC50 [3]: 39.8 µM (inconclusive)
- AC50 [4]: 44.7 µM (inconclusive)

SMILES: CC(C)COc1ccc(N)cc1OCC(C)C
- IC50 [16]: 55.3 µM (active)

SMILES: COC(=O)Cn1/c(=N/C(=O)CSC(C)=O)sc2ccccc21
- EC50 [8]: > 112 µM (not active)
- EC50 [9]: > 112 µM (not active)

SMILES: C=CCN1/C(=N/C(=O)CC)SC2CS(=O)(=O)CC21 (stereo not given)
- AC50 [1]: 11.2 µM (inconclusive)

SMILES: Cc1nc([N+](=O)[O-])c(N2CCN(C)CC2)n1Cc1ccccc1
- AC50 [1]: 39.8 µM (inconclusive)
- AC50 [15]: 35.5 µM (inconclusive)
